Test results from publication PMC7583830 (Molecules, 2020).
Where “and” joins values, the source holds several entries; their conditions need not be identical. Equal values may be shown once. Read-outs that look alike come from different tables or passages of the source. Where a SMILES comes first, the peptide text is derived from it. [ ]: non-standard residue; d: D form. The star is where a group is joined. DOTA = O=C(O)CN1CCN(CC(=O)O)CCN(CC(=O)*)CCN(CC(=O)O)CC1; 1Nal = N[C@@H](Cc1cccc2ccccc12)C(=O)O; NMeNle = CCCC[C@H](NC)C(=O)O

What was measured:
[1] = Stability in fresh human serum (radio-HPLC); assay type: in vitro ADME; conditions: 24 h incubation, 37 °C
Method: (§1) In vitro stability studies for the characterization of the metabolic stability of the radiolabeled peptide analogs in human serum were carried out with [^177Lu]Lu-1, [^177Lu]Lu-M1, [^177Lu]Lu-M2, [^177Lu]Lu-M3 and [^177Lu]Lu-M4 (n = 2). Additional stability studies in rat liver and kidney homogenates were performed for [^177Lu]Lu-1 (n = 2). Tissue homogenates were prepared from dissected organs by homogenization for 1 min at RT (IKA-Werke, Staufen, Germany) in 20 mM HEPES buffer pH 7.3 (30% v/v). The radioligands were incubated in the different media at a concentration of 500 pmol/mL (corresponding to an activity of 6–11 MBq). After incubation at 37 °C at different time points for up to 24 h, a 100 µl sample was taken in duplicates and analyzed by HPLC. Samples obtained from human serum and rat homogenates were treated with ACN at a ratio of 1:1.5 (v/v) to precipitate proteins, centrifuged (14,000 rpm, 2 min, centrifuge 5424, Eppendorf AG, Germany) and diluted with water at a ratio of 1:1 (v/v). A 100 µl aliquot of this solution was injected into the radio HPLC system. The degradation of the radioligand was evaluated based on the radiochemical purity after radiolabeling and the percentage of intact radiopeptide observed during incubation in the different media.

[2] = Stability in rat liver homogenate; assay type: in vitro ADME
Method: as §1

[3] = Stability in rat kidney homogenate; assay type: in vitro ADME
Method: as §1

[4] = Protein binding in human serum by size exclusion chromatography; assay type: in vitro ADME; conditions: 24 h incubation
Method: For protein binding assessment, the radiolabeled DOTA-peptides were incubated in fresh human serum at 37 °C (500 pmol/mL, n = 2). After 1, 4 and 24 h of incubation, two samples were taken for each time point and analyzed by Sephadex G-50 size-exclusion chromatography (GE Healthcare Illustra, Little Chalfont, UK). The percentage of protein binding was determined by measuring the column and the eluate with the gamma-counter.

[5] = Metabolic stability in vivo and radiometabolites (radio-HPLC of blood, urine, liver, kidney); design: species or system BALB/c mice
Method: (§2) Metabolic biodistribution studies were performed in accordance with the ethical standards of the institution and approved by the Austrian Ministry of Science (BMWFW-66.011/0072-V/3b/2019). These studies were carried out in 5- to 7-week-old female BALB/c mice (n = 3) injected with [^177Lu]Lu-1 via a lateral tail vein. To allow monitoring of the metabolites by radio-HPLC, mice were injected with 30 MBq corresponding to 0.8 nmol total peptide. The mice were euthanized by cervical dislocation after different time points of 10 min, 30 min and 1 h p.i. and the urine and a venous blood sample were collected at the time of sacrifice. Liver and kidneys were dissected and homogenized in 20 mM HEPES buffer pH 7.3 at a ratio of 1:1 (v/v) with an Ultra-Turrax T8 homogenizer (IKA-Werke, Staufen, Germany) for 1 min at RT. Before radio-HPLC analysis, the samples (except urine) were treated with ACN at a ratio of 1:1 (v/v) to precipitate proteins, centrifuged at 2000× g for 2 min and diluted with water at a ratio of 1:1 (v/v). For HPLC analysis of the samples, the analytical HPLC system described above with a flow rate of 1 mL/min was used together with the following optimized water/ACN/0.1% TFA gradient to allow a better separation of [^177Lu]Lu-1 and the different radiometabolites: 0–7 min 1–7% ACN, 7–8 min 7–10% ACN, 8–18 min 10–18% ACN, 18–20 min 18–32% ACN, 20–27 min 32% ACN, 27–37 min […], 37–40 min 80% ACN, 40–40.1 min 80–1% ACN, 40.1–45 min 1% ACN. Urine was measured with the low-sensitivity loop of the radiodetector. The remaining samples were analyzed with the high-sensitivity loop due to the lower radioactivity present in blood, liver and kidney homogenate. To quantify the percentage of intact [^177Lu]Lu-1 and [^177Lu]Lu-M1 showing some overlap in the radiochromatogram when using the high-sensitivity loop of the radiodetector, the two radiopeptides were co-injected at different known ratios to enable a more accurate separation and integration of the two peaks (see supporting Figure S4). Mice from the metabolic biodistribution studies were subjected to a further dissection of all remaining tissues (blood, lung, heart, femur, spleen, muscle, intestine, pancreas and stomach). All organs, also including liver and kidneys, were weighed, and their radioactivity was measured in the gamma counter together with a standard and the residual body. To quantify the uptake of radioactivity in liver and kidneys, a part of liver and kidney homogenate was measured in the gamma counter to extrapolate the radioactivity for the whole organ.

[6] = Biodistribution in BALB/c mice; assay type: in vivo; conditions: for tissue uptake at 0.5 h / tissue uptake at 1 h / tissue uptake at 10 min: female, BALB/c, mouse, iv, total radioactivity; for tissue uptake at 0.5 h: 30 min p.i.; for tissue uptake at 1 h: 1 h p.i.
Method: as §2

[7] = blood, 30 MBq, read-out: uptake in blood
[8] = femur, 30 MBq, read-out: uptake in femur
[9] = heart, 30 MBq, read-out: uptake in heart
[10] = intestine, 30 MBq, read-out: uptake in intestine
[11] = kidneys, 30 MBq, read-out: uptake in kidneys
[12] = liver, 30 MBq, read-out: uptake in liver
[13] = lung, 30 MBq, read-out: uptake in lung
[14] = muscle, 30 MBq, read-out: uptake in muscle
[15] = pancreas, 30 MBq, read-out: uptake in pancreas
[16] = spleen, 30 MBq, read-out: uptake in spleen
[17] = stomach, 30 MBq, read-out: uptake in stomach

SMILES: CCCC[C@@H](C(=O)N[C@@H](CC(=O)O)C(=O)N[C@@H](Cc1cccc2ccccc12)C(N)=O)N(C)C(=O)[C@H](Cc1c[nH]c2ccccc12)NC(=O)CNC(=O)[C@H](Cc1ccc(O)cc1)NC(=O)[C@@H]1CCCN1C(=O)[C@@H](CCC(=O)O)NC(=O)CN1CCN(CC(=O)O)CCN(CC(=O)O)CCN(CC(=O)O)CC1 [[^177Lu]Lu-1, metal not drawn] ({DOTA}-[dE]PYGW[NMeNle]D[1Nal]-NH2)
- intact radiopeptide [1]: 96.2 ± 1.3%
- intact radiopeptide ([2]; 30 min): 83.6 ± 0.2% and 84%
- intact radiopeptide ([2]; 2 h): 52.9 ± 2.0% and > 50%
- intact radiopeptide ([2]; 24 h): 49.3 ± 1.7%
- intact radiopeptide ([2]; up to 20 min incubation): > 90%
- intact radiopeptide ([3]; 20 min): 65.6 ± 2.8%
- intact radiopeptide ([3]; 30 min): 43.9 ± 1.0% and 44%
- intact radiopeptide ([3]; 2 h): < 5%
- intact radiopeptide ([3]; 24 h): < 1%
- fraction unbound [4]: 0.622
- total amount of radiometabolites ([5]; blood, 10 min p.i.): 19.5%
- total amount of radiometabolites ([5]; blood, 30 min p.i.): 35.9%
- percentage of intact radiopeptide / radiometabolite ([5]; blood, 30 min p.i., mice injected i.v. with [177Lu]Lu-1): 64.1%
- total amount of radiometabolites ([5]; blood, 60 min p.i.): 43.1%
- percentage of intact radiopeptide / radiometabolite ([5]; blood, 60 min p.i., mice injected i.v. with [177Lu]Lu-1): 56.9%
- percentage of intact radiopeptide / radiometabolite ([5]; kidney homogenate soluble phase, 10 min p.i.): 29.7%
- percentage of intact radiopeptide / radiometabolite ([5]; kidney, 30 min p.i.): 18.0%
- percentage of intact radiopeptide / radiometabolite ([5]; kidney, 60 min p.i.): 7.0%
- intact radiopeptide ([5]; kidneys and urine, studied time points): < 30%
- percentage of intact radiopeptide / radiometabolite ([5]; liver homogenate soluble phase, 10 min p.i.): 71.9%
- percentage of intact radiopeptide / radiometabolite ([5]; liver, 30 min p.i.): 53.9%
- percentage of intact radiopeptide / radiometabolite ([5]; liver, 60 min p.i.): 47.7%
- percentage of intact radiopeptide / radiometabolite ([5]; urine, 10 min p.i.): 29.1% and 29%
- percentage of intact radiopeptide / radiometabolite ([5]; urine, 30 min p.i.): 19.4%
- percentage of intact radiopeptide / radiometabolite ([5]; urine, 60 min p.i.): 18%
- whole body activity ([6]; 10 min p.i.): 61.78 % IA
- whole body activity ([6]; 1 h after injection): 12.27 % IA
- tissue uptake at 0.5 h [6, 7]: 5.08 %ID/g
- tissue uptake at 1 h [6, 7]: 2.05 %ID/g
- tissue uptake at 10 min ([6]; blood, 10 min p.i., 30–40 MBq, 0.8 nmol, read-out: uptake in blood): 17.8 %ID/g
- tissue uptake at 10 min ([6]; femur, 30 MBq, 10 min p.i., read-out: uptake in femur): 5.97 %ID/g
- tissue uptake at 0.5 h [6, 8]: 1.28 %ID/g
- tissue uptake at 1 h [6, 8]: 0.52 %ID/g
- tissue uptake at 10 min ([6]; heart, 30 MBq, 10 min p.i., read-out: uptake in heart): 7.13 %ID/g
- tissue uptake at 0.5 h [6, 9]: 2.72 %ID/g
- tissue uptake at 1 h [6, 9]: 0.99 %ID/g
- tissue uptake at 10 min ([6]; intestine, 30 MBq, 10 min p.i., read-out: uptake in intestine): 2.63 %ID/g
- tissue uptake at 0.5 h [6, 10]: 1.61 %ID/g
- tissue uptake at 1 h [6, 10]: 1.02 %ID/g
- tissue uptake at 10 min ([6]; kidneys, 30 MBq, 10 min p.i., read-out: uptake in kidneys): 14.5 %ID/g
- tissue uptake at 0.5 h [6, 11]: 10.8 %ID/g
- tissue uptake at 1 h [6, 11]: 7.01 %ID/g
- tissue uptake at 10 min ([6]; liver, 30 MBq, 10 min p.i., read-out: uptake in liver): 5.37 %ID/g
- tissue uptake at 0.5 h [6, 12]: 2.95 %ID/g
- tissue uptake at 1 h [6, 12]: 1.26 %ID/g
- tissue uptake at 10 min ([6]; lung, 30 MBq, 10 min p.i., read-out: uptake in lung): 17.4 %ID/g
- tissue uptake at 0.5 h [6, 13]: 5.03 %ID/g
- tissue uptake at 1 h [6, 13]: 1.95 %ID/g
- tissue uptake at 10 min ([6]; muscle, 30 MBq, 10 min p.i., read-out: uptake in muscle): 2.56 %ID/g
- tissue uptake at 0.5 h [6, 14]: 1.03 %ID/g
- tissue uptake at 1 h [6, 14]: 0.36 %ID/g
- tissue uptake at 10 min ([6]; pancreas, 30 MBq, 10 min p.i., read-out: uptake in pancreas): 3.39 %ID/g
- tissue uptake at 0.5 h [6, 15]: 1.76 %ID/g
- tissue uptake at 1 h [6, 15]: 0.84 %ID/g
- tissue uptake at 10 min ([6]; spleen, 30 MBq, 10 min p.i., read-out: uptake in spleen): 3.7 %ID/g
- tissue uptake at 0.5 h [6, 16]: 2 %ID/g
- tissue uptake at 1 h [6, 16]: 0.79 %ID/g
- tissue uptake at 10 min ([6]; stomach, 30 MBq, 10 min p.i., read-out: uptake in stomach): 3.36 %ID/g
- tissue uptake at 0.5 h [6, 17]: 2.29 %ID/g
- tissue uptake at 1 h [6, 17]: 1.39 %ID/g
- washout at 1 h versus 10 min p.i. ([6]; non-excretory organs (blood, lung, heart, femur, spleen and muscle)): 79–91%
- percentage decrease of radioactivity at 1 h versus 10 min p.i. ([6]; pancreas): 75%
- percentage decrease of radioactivity at 1 h versus 10 min p.i. ([6]; stomach): 59%
